ChEMBL document CHEMBL3880418, “Pyripyropene derivative having ACAT2 inhibiting activity and stable to metabolizing enzymes” (2013)

Assays:
[1] = target: T1, Sterol O-acyltransferase 2 (Mus musculus) (UniProt O88908); assay: Ratio of compound IC50 to PRD 043 IC50 for ACAT2 in mouse hepatic microsomal membranes; type: cell membranes; conditions: Liver, Microsomal Membrane
T1 sequence (whole entry): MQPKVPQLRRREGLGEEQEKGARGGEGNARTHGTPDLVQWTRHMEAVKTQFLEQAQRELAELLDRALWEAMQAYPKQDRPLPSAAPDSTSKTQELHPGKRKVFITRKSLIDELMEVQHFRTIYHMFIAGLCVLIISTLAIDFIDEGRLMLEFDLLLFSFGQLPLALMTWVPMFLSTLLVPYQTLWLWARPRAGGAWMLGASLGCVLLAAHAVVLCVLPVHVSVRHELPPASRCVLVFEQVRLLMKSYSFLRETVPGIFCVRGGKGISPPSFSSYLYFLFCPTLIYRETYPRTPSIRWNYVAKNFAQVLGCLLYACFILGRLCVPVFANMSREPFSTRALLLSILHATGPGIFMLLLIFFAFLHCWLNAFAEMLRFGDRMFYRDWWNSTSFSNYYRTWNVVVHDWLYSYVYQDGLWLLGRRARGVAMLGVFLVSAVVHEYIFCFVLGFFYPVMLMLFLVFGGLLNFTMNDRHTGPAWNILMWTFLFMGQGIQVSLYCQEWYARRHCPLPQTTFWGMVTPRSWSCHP

[2] = Half life in Sprague-Dawley rat liver microsomes at 6 ug/ml by HPLC method; type: ADME

Cc1cccc([C@@H]2OC[C@@]3(C)[C@@H]4C[C@H](OC(=O)c5ccc(F)cc5)[C@@]5(C)Oc6cc(-c7cccnc7)oc(=O)c6[C@H](O)[C@@H]5[C@@]4(C)CC[C@@H]3O2)c1
Ratio IC50 [1]: < 20
half-life at 6 ug/ml [2]: > 9 h

Cc1ccc([C@@H]2OC[C@@]3(C)[C@@H]4C[C@H](OC(=O)c5ccc(C#N)cc5)[C@@]5(C)Oc6cc(-c7cccnc7)oc(=O)c6[C@H](O)[C@@H]5[C@@]4(C)CC[C@@H]3O2)cc1
Ratio IC50 [1]: < 20
half-life at 6 ug/ml [2]: > 9 h

C[C@@]12CO[C@@H](c3ccccc3F)O[C@H]1CC[C@@]1(C)[C@H]2C[C@H](OC(=O)c2ccc(F)cc2)[C@@]2(C)Oc3cc(-c4cccnc4)oc(=O)c3[C@H](O)[C@H]12
Ratio IC50 [1]: < 20
half-life at 6 ug/ml [2]: > 9 h

CC(C)C(=O)OC[C@@]1(C)[C@@H]2C[C@H](OC(=O)C3CCCCC3)[C@@]3(C)Oc4cc(-c5cccnc5)oc(=O)c4[C@H](O)[C@@H]3[C@@]2(C)CC[C@@H]1OC(=O)C(C)C
Ratio IC50 [1]: < 20
half-life at 6 ug/ml [2]: > 9 h
